Patent EP2530078A1, “THIAZOLE DERIVATIVE” (Takeda Pharmaceutical Company Limited, priority 2010, dated 2011)

What follows are molecules tested against T1, human GPR52 (Homo sapiens, UniProt Q9Y2T5) (assay: Increase of intracellular cAMP concentration in human GPR52-expressing CHO cell (AlphaScreen cAMP assay)). Details: 0.5 h; test compound 10 µm, 37°C, 30 min, human GPR52-expressing CHO(dhfr-) cells; 100% = cAMP with 1 µM N-(2-hydroxyethyl)-3-[2-[3-(trifluoromethyl)benzyl]-1-benzofuran-4-yl]benzamide, 0% = DMSO; read-out: GPR52 agonist activity (%).
T1 construct: expressed in transfected cells; host or cells: CHO(dhfr-) cells
Type: cell-based
Procedure: Increase of intracellular cAMP concentration in human GPR52-expressing CHO cell
Using OptiPlate-384 (PerkinElmer Inc.), 1×10^4 human GPR52-expressing CHO(dhfr-) cells were incubated together with a test compound ([…]) in an assay buffer (30 µL, HBSS (containing Ca^2+ and Mg^2+), 0.5% BSA, 100 µM IBMX, 100 µM Ro20-1724, 5 mM HEPES (pH 7.55)) at 37°C for 30 min. Thereafter, according to the protocol of AlphaScreen cAMP Assay Kit (PerkinElmer Inc.), the intracellular cAMP concentration was measured by EnVision (PerkinElmer Inc.). The GPR52 agonist activity was calculated, assuming the intracellular cAMP concentration in the presence of 1 µM N-(2-hydroxyethyl)-3-[2-[3-(trifluoromethyl)benzyl]-1-benzofuran-4-yl]benzamide to be 100% and assuming the intracellular cAMP concentration when DMSO was added instead of the test compound to be 0%.

T1 sequence (Q9Y2T5 whole entry): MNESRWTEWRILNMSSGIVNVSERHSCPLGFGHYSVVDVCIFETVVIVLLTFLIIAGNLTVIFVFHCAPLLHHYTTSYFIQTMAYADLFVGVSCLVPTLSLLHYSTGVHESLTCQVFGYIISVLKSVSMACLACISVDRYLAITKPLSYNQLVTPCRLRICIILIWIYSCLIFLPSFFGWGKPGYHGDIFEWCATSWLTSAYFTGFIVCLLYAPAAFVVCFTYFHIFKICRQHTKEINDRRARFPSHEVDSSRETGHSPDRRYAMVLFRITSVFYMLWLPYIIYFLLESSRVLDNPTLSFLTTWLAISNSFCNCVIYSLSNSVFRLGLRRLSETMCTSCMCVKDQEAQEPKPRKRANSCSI

activation at 10 µM	Compound
69%	Cc1nc(Cc2cc(F)cc(Cl)c2)sc1NC(=O)c1cc([N+](=O)[O-])nn1C [Example 158, N-[2-(3-chloro-5-fluorobenzyl)-4-methyl-1,3-thiazol-5-yl]-1-methyl-3-nitro-1H-pyrazole-5-carboxamide]
71%	CCOC(=O)c1cc(C(=O)Nc2sc(Cc3cc(F)cc(Cl)c3)nc2C)n(C)n1 [Example 159, ethyl 5-{[2-(3-chloro-5-fluorobenzyl)-4-methyl-1,3-thiazol-5-yl]carbamoyl}-1-methyl-1H-pyrazole-3-carboxylate]
74%	Cc1nc(Cc2ccc(F)c(F)c2)sc1NC(=O)c1ccnn1C [Example 160, N-[2-(3,4-difluorobenzyl)-4-methyl-1,3-thiazol-5-yl]-1-methyl-1H-pyrazole-5-carboxamide]
81%	COCCn1nccc1C(=O)Nc1sc(Cc2cc(F)cc(Cl)c2)nc1C [Example 161, N-[2-(3-chloro-5-fluorobenzyl)-4-methyl-1,3-thiazol-5-yl]-1-(2-methoxyethyl)-1-pyrazole-5-carboxamide]
70%	Cc1nc(Cc2cc(F)cc(Cl)c2)sc1NC(=O)c1ccnn1CC(C)C [Example 162, N-[2-(3-chloro-5-fluorobenzyl)-4-methyl-1,3-thiazol-5-yl]-1-(2-methylpropyl)-1H-pyrazole-5-carboxamide]
78%	Cc1nc(Cc2cc(F)cc(Cl)c2)sc1NC(=O)c1ccnn1CC(F)(F)F [Example 163, N-[2-(3-chloro-5-fluorobenzyl)-4-methyl-1,3-thiazol-5-yl]-1-(2,2,2-trifluoroethyl)-1H-pyrazole-5-carboxamide]
80%	Cc1nc(Cc2cc(F)cc(Cl)c2)sc1NC(=O)c1cc(C(N)=O)nn1C [Example 164, N^5-[2-(3-chloro-5-fluorobenzyl)-4-methyl-1,3-thiazol-5-yl]-1-methyl-1H-pyrazole-3,5-dicarboxamide]
88%	Cc1nc(Cc2cc(F)cc(Cl)c2)sc1NC(=O)c1cc(CO)nn1C [Example 166, N-[2-(3-chloro-5-fluorobenzyl)-4-methyl-1,3-thiazol-5-yl]-3-(hydroxymethyl)-1-methyl-1H-pyrazole-5-carboxamide]
70%	Cc1nc(Cc2cc(F)cc(Cl)c2)sc1NC(=O)c1ccc(=O)n(C)c1 [Example 167, N-[2-(3-chloro-5-fluorobenzyl)-4-methyl-1,3-thiazol-5-yl]-1-methyl-6-oxo-1,6-dihydropyridine-3-carboxamide]
76%	Cc1nc(Cc2cc(F)cc(Cl)c2)sc1NC(=O)c1nc([N+](=O)[O-])cn1C [Example 169, N-[2-(3-chloro-5-fluorobenzyl)-4-methyl-1,3-thiazol-5-yl]-1-methyl-4-nitro-1H-imidazole-2-carboxamide]
70%	Cc1nc(Cc2cc(F)cc(Cl)c2)sc1NC(=O)c1cnn(C)c1 [Example 171, N-[2-(3-chloro-5-fluorobenzyl)-4-methyl-1,3-thiazol-5-yl]-1-methyl-1H-pyrazole-4-carboxamide]
89%	Cc1nc(Cc2cc(F)cc(Cl)c2)sc1NC(=O)C1(S(C)(=O)=O)CC1 [Example 172, N-[2-(3-chloro-5-fluorobenzyl)-4-methyl-1,3-thiazol-5-yl]-1-(methylsulfonyl)cyclopropanecarboxamide]
71%	COCCNC(=O)C1(C(=O)Nc2sc(Cc3cc(F)cc(Cl)c3)nc2C)CC1 [Example 175, N-[2-(3-chloro-5-fluorobenzyl)-4-methyl-1,3-thiazol-5-yl]-N'-(2-methoxyethyl)cyclopropane-1,1-dicarboxamide]
99%	CC(=O)Nc1cn(C)c(C(=O)Nc2sc(Cc3cc(F)cc(Cl)c3)nc2C)n1 [Example 176, 4-(acetylamino)-N-[2-(3-chloro-5-fluorobenzyl)-4-methyl-1,3-thiazol-5-yl]-1-methyl-1H-imidazole-2-carboxamide]
86%	CCc1cc(C(=O)Nc2sc(Cc3cc(F)cc(Cl)c3)nc2C)n(C)n1 [Example 177, N-[2-(3-chloro-5-fluorobenzyl)-4-methyl-1,3-thiazol-5-yl]-3-ethyl-1-methyl-1H-pyrazole-5-carboxamide]
80%	Cc1nc(Cc2cc(F)cc(Cl)c2)sc1NC(=O)c1c(C)ncn1C [Example 179, N-[2-(3-chloro-5-fluorobenzyl)-4-methyl-1,3-thiazol-5-yl]-1,4-dimethyl-1H-imidazole-5-carboxamide]
75%	Cc1nc(Cc2cc(F)cc(Cl)c2)sc1NC(=O)c1ncn(C)c1C [Example 180, N-[2-(3-chloro-5-fluorobenzyl)-4-methyl-1,3-thiazol-5-yl]-1,5-dimethyl-1H-imidazole-4-carboxamide]

activation at 10 µM	Compound
91%	Cc1nc(Cc2cc(F)cc(C(F)(F)F)c2)sc1NC(=O)c1ccnn1C [Example 181, N-{2-[3-fluoro-5-(trifluoromethyl)benzyl]-4-methyl-1,3-thiazol-5-yl}-1-methyl-1H-pyrazole-5-carboxamide]
87%	Cc1nc(Cc2cc(F)cc(Cl)c2)sc1NC(=O)c1scnc1C [Example 184, N-[2-(3-chloro-5-fluorobenzyl)-4-methyl-1,3-thiazol-5-yl]-4-methyl-1,3-thiazole-5-carboxamide]
81%	Cc1nc(Cc2cc(F)cc(Cl)c2)sc1NC(=O)c1cccn1C [Example 185, N-[2-(3-chloro-5-fluorobenzyl)-4-methyl-1,3-thiazol-5-yl]-1-methyl-1H-pyrrole-2-carboxamide]
94%	Cc1nc(Cc2cc(F)cc(Cl)c2)sc1NC(=O)c1c(C)noc1C [Example 186, N-[2-(3-chloro-5-fluorobenzyl)-4-methyl-1,3-thiazol-5-yl]-3,5-dimethylisoxazole-4-carboxamide]
74%	Cc1nc(Cc2cc(F)cc(Cl)c2)sc1NC(=O)c1c(Cl)cnn1C [Example 206, 4-chloro-N-[2-(3-chloro-5-fluorobenzyl)-4-methyl-1,3-thiazol-5-yl]-1-methyl-1H-pyrazole-5-carboxamide]
72%	Cc1nc(Cc2cc(F)cc(Cl)c2)sc1NC(=O)C1CCS(=O)(=O)CC1 [Example 208, N-[2-(3-chloro-5-fluorobenzyl)-4-methyl-1,3-thiazol-5-yl]-tetrahydro-2H-thiopyran-4-carboxamide 1,1-dioxide]
82%	Cc1nc(C(O)c2cccc(C(F)(F)F)c2)sc1NC(=O)c1ccnn1C (stereo not shown) [Example 210, N-(2-{hydroxy[3-(trifluoromethyl)phenyl]methyl}-4-methyl-1,3-thiazol-5-yl)-1-methyl-1H-pyrazole-5-carboxamide]
77%	Cc1nc(Cc2cc(F)cc(Cl)c2)sc1NC(=O)C1CCS(=O)(=O)C1 (stereo not shown) [Example 216, N-[2-(3-chloro-5-fluorobenzyl)-4-methyl-1,3-thiazol-5-yl]-tetrahydrothiophene-3-carboxamide 1,1-dioxide]
82%	COc1cccc(Cc2nc(C)c(NC(=O)c3ccnn3C)s2)c1 [Example 219, N-[2-(3-methoxybenzyl)-4-methyl-1,3-thiazol-5-yl]-1-methyl-1H-pyrazole-5-carboxamide]
79%	Cc1nc(Cc2cc(F)cc(F)c2)sc1NC(=O)c1ccnn1C [Example 220, N-[2-(3,5-difluorobenzyl)-4-methyl-1,3-thiazol-5-yl]-1-methyl-1H-pyrazole-5-carboxamide]
90%	Cc1cccc(Cc2nc(C)c(NC(=O)c3ccnn3C)s2)c1 [Example 221, 1-methyl-N-[4-methyl-2-(3-methylbenzyl)-1,3-thiazol-5-yl]-1H-pyrazole-5-carboxamide]
80%	Cc1nc(Cc2cccc(Br)c2)sc1NC(=O)c1ccnn1C [Example 224, N-[2-(3-bromobenzyl)-4-methyl-1,3-thiazol-5-yl]-1-methyl-1H-pyrazole-5-carboxamide]
101%	Cc1nc(Cc2cccc(C3CC3)c2)sc1NC(=O)c1ccnn1C [Example 227, N-[2-(3-cyclopropylbenzyl)-4-methyl-1,3-thiazol-5-yl]-1-methyl-1H-pyrazole-5-carboxamide]
69%	Cc1nc(Cc2cc(F)cc(Cl)c2)sc1NC(=O)c1cccc(S(C)(=O)=O)c1 [Example 228, N-[2-(3-chloro-5-fluorobenzyl)-4-methyl-1,3-thiazol-5-yl]-3-(methylsulfonyl)benzamide]
71%	Cc1nc(Cc2cc(F)cc(Cl)c2)sc1NC(=O)c1cc(CC#N)nn1C [Example 230, N-[2-(3-chloro-5-fluorobenzyl)-4-methyl-1,3-thiazol-5-yl]-3-(cyanomethyl)-1-methyl-1H-pyrazole-5-carboxamide]
81%	Cc1nc(Cc2cccc(S(C)(=O)=O)c2)sc1NC(=O)c1ccnn1C [Example 233, 1-methyl-N-{4-methyl-2-[3-(methylsulfonyl)benzyl]-1,3-thiazol-5-yl}-1H-pyrazole-5-carboxamide]
78%	Cc1nc(Cc2cc(F)cc(Cl)c2)sc1NC(=O)c1ccnn1CC(N)=O [Example 234, 1-(carbamoylmethyl)-N-[2-(3-chloro-5-fluorobenzyl)-4-methyl-1,3-thiazol-5-yl]-1H-pyrazole-5-carboxamide]
